Measured values taken from patent US7250153B2, “Contrast media formulations having improved biological tolerance” (Biophysica Research, Inc., priority 2002, dated 2007).
Where “and” joins values, the source holds several entries; their conditions need not be identical. Equal entries are not always repeated. Where two headings read alike, the source gives them in different places.

Key:
rats [1] = details: Control, formulated in TRIS/HCl; intravenous; published (Heglund et al. 1995); cited from earlier work
mice [2] = details: Control, formulated in TRIS/HCl; intravenous; published (Heglund et al. 1995); cited from earlier work
[3] = Separate study: stability of iosimenol after autoclaving in TRIS/HCl and TRIS/citric acid (pH, iodide release); type: physicochemical; details: 121° C. for 20 min; for pH after autoclaving / ΔI−: pre-autoclaving pH 7.00, Ca/Na EDTA 0.1 mg/ml, 340-355 mg I/ml
Description: (§1) A 5 micron C18 column 25 cm×4.6 mm ID was eluted with 30% acetonitrile/70% 0.05 M KH2PO4 containing 7 ml/L of 40% tetrabutyl ammonium hydroxide. 20 μl of a 10 μg I^−/ml was the standard. 20 μl of a test sample of iosimenol was injected and UV absorbance measured at 230 nm, 0.2 AU. Under these conditions, the iodide standard eluted after 5.6 minutes and gave an area of “X” counts.
(§2) Iodide was alternately determined by extraction and spectrophotometry according to USP24/NF19, p 911 (1995). In general, the solution containing iodide is oxidized in the presence of acid, with sodium nitrite and then extracted into toluene which is then read at a wavelength of 500 nm. Comparison of standard samples with experimental samples yields the amount of iodide present in the sample.

rats [4] = test: Intravenous LD50 (systemic tolerance) in rats; type: in vivo
Description: (§3) To examine the effects of the TRIS/citrate buffer system of this invention on the biological tolerance, using standard methods, we assessed intravenous murine and rat LD50 of iosimenol formulated either in TRIS/HCl or in the novel TRIS/citric acid buffers, and compared the results with those published for the clinically employed nonionic dimer iodixanol (formulated in TRIS/HCl buffer; Heglund IF et al., Acta Radiol. Suppl. 1995:399:69-82). Murine and rat LD50 were obtained by 1 ml/min injection of 340 mg I/ml; data at 7 days and based on the 50% survival of the animals was expressed as g I/kg bw (Table 3).

[5] = Stability of iosimenol to autoclave sterilization (20 min at 121° C.), free iodide measured; type: physicochemical; details: for I− after / I− before: single samples
Description: Samples of Iosimenol were formulated in 20 mM TRIS+5 mM citric acid, TRIS/HCl and 10 mM TRIS+3.3 mM citrate. Samples were then autoclaved for 20 minutes at 121° C. and the amounts of free iodine measured.
as §1, §2

mice [6] = test: Intravenous LD50 (systemic tolerance) in mice; type: in vivo
Description: as §3

[7] = Buffer 10 mM TRIS + 3 mM citric acid

## CC(=O)N(CC(O)CN(C(C)=O)c1c(I)c(C(=O)NCC(O)CO)c(I)c(C(=O)NCC(O)CO)c1I)c1c(I)c(C(=O)NCC(O)CO)c(I)c(C(=O)NCC(O)CO)c1I (stereo not shown) [Iodixanol]
Rats [1]
  LD50 rats: 21.0 g I/kg bw
Mice [2]
  LD50 mice: 21.0 g I/kg bw

## NC(=O)c1c(I)c(C(=O)NCC(O)CO)c(I)c(N(CC(O)CO)C(=O)CC(=O)N(CC(O)CO)c2c(I)c(C(N)=O)c(I)c(C(=O)NCC(O)CO)c2I)c1I (stereo not shown) [Iosimenol, N,N′-Bis[3-carbamoyl-5-(2,3-dihydroxypropyl-carbamoyl)-2,4,6-triiodophenyl]-N,N′-bis(2,3-dihydroxypropyl)-malonamide]
[3]; [7]
  pH after autoclaving: 6.90
  ΔI−: +24.2 μg/ml
[3]; Buffer 10 mM TRIS/HCl
  pH after autoclaving: 6.49
  ΔI−: +8.7 μg/ml
[3]; Buffer 20 mM TRIS/HCl
  pH after autoclaving: 7.00
  ΔI−: +7 μg/ml
[3]; TRIS/citric acid in a non-equivalent ratio compared with TRIS/HCl buffer
  Stability after autoclaving (in words): lower stability
Rats [4]; 20 mM TRIS + 5 mM citric acid, intravenous, 1 ml/min injection of 340 mg I/ml, data at 7 days
  LD50 rats: 23.5 g I/kg bw
Rats [4]; rat, in vivo, iv
  LD50 rats: 20.0 g I/kg bw
Rats [4]; rat, intravenous
  LD50 in 20 mM TRIS with 5 mM citrate compared with 20 mM TRIS/HCl (in words): statistically significantly higher LD50
[5]; 20 mM TRIS and 5 mM citric acid, pH about 6.5 to 7.5, compared with TRIS/HCl or TRIS/citrate in molar equivalent ratio
  Stability on autoclaving (in words): always somewhat less or equally stable
[5]; Buffer 10 mM TRIS + 3.3 mM citrate, after 20 min at 121° C., average
  I− after, Avg.: 21.84 µg/mL
[5]; Buffer 10 mM TRIS + 3.3 mM citrate, after 20 min at 121° C.
  I− after: 22.34 µg/mL and 21.51 µg/mL and 21.66 µg/mL
[5]; Buffer 10 mM TRIS + 3.3 mM citrate, after minus before 20 min at 121° C.
  ΔI−: +17.84 μg/ml
[5]; Buffer 10 mM TRIS + 3.3 mM citrate, before autoclaving, average
  I− before, Avg.: 4.00 µg/mL
[5]; Buffer 10 mM TRIS + 3.3 mM citrate, before autoclaving
  I− before: 3.99 µg/mL and 4.17 µg/mL and 3.83 µg/mL
[5]; Buffer 20 mM TRIS + 5 mM citric acid, after 20 min at 121° C., average
  I− after, Avg.: 16.90 µg/mL
[5]; Buffer 20 mM TRIS + 5 mM citric acid, after 20 min at 121° C.
  I− after: 15.80 µg/mL and 15.96 µg/mL and 16.11 µg/mL and 16.53 µg/mL and 18.87 µg/mL and 18.13 µg/mL
[5]; Buffer 20 mM TRIS + 5 mM citric acid, after minus before 20 min at 121° C.
  ΔI−: +12.90 μg/ml
[5]; Buffer 20 mM TRIS + 5 mM citric acid, before autoclaving, average
  I− before, Avg.: 4.00 µg/mL
[5]; Buffer 20 mM TRIS + 5 mM citric acid, before autoclaving
  I− before: 4.08 µg/mL and 3.94 µg/mL and 3.42 µg/mL and 3.59 µg/mL and 4.44 µg/mL and 4.52 µg/mL
[5]; Buffer 20 mM TRIS/HCl, after 20 min at 121° C., average
  I− after, average (row not labelled): 14.22 µg/mL
[5]; Buffer 20 mM TRIS/HCl, after 20 min at 121° C.
  I− after: 14.07 µg/mL and 14.19 µg/mL and 14.39 µg/mL
[5]; Buffer 20 mM TRIS/HCl, after minus before 20 min at 121° C.
  ΔI− (row not labelled): +9.89 μg/ml
[5]; Buffer 20 mM TRIS/HCl, before autoclaving, average
  I− before, average (row not labelled): 4.33 µg/mL
[5]; Buffer 20 mM TRIS/HCl, before autoclaving
  I− before: 4.29 µg/mL and 4.44 µg/mL and 4.27 µg/mL
[5]; carboxylic acid neutralized by an amine, compared with TRIS/carboxylic acid where TRIS prevailed or TRIS/HCl
  Stability under autoclaving (in words): less stable
Mice [6]; mouse, in vivo, iv
  LD50 mice: 22.0 g I/kg bw
Mice [6]; murine, intravenous
  LD50 in 20 mM TRIS with 5 mM citrate compared with 20 mM TRIS/HCl (in words): statistically significantly higher LD50
